Results reported in article PMC13242511, “Disrupting Notch signalling by a small molecule inhibiting dihydroorotate dehydrogenase activity” (Scientific Reports, 2026).
Where a SMILES comes first, the peptide text is derived from it. The star is where a group is joined. Cbz = O=C(OCc1ccccc1)*

Columns and labels:
[1] = tested on: mNotch1ΔE fused to an HiBiT tag; assay: HiBit reporter assay; assay type: cell-based, mouse; settings: 24 h, 14-point dose-response; Supplemental Fig. 8D,G
Method: The Notch1ΔE construct used to generate the Notch reporter cell line (see above) was first cloned in frame into the pBiT3.2-C [TK/HiBiT/Blast] Vector (Promega) and then stably introduced into HEK293T wild type cells, using Lipofectamine transfection, as described. Analogous to the Notch reporter cell line, Blasticidin was used as a selection marker (0.1 mg/ml) and stable cell lines with robust luciferase signals were generated. […] A clone (#D2) with an empty HiBit vector stably integrated was used as control.
20 µl containing 4,000 cells were seeded on 384-well pre-spotted compound plates (Greiner, cat #781080). Cells were incubated for 24 h and viability was determined using CellTiter-Fluor (Promega, cat # G6080), following the manufacturer’s instructions. Next, cells were subjected to the HiBit assay according to the manufacturer’s instructions (Promega, cat # N3030). Prior to cell lysis, the tissue culture plates were allowed to cool down to room temperate. Fluorescence and luminescence signals were recorded using a SpectraMax i3 (Molecular devices) and signals were read at different time-points to determine optimal signal stability. Cells cultivated only with DMSO were used as a reference to determine effects of compounds. MG132, Bafilomycin A1 and the GSI RO4929097 served as additional controls. Celastrol was used to determine the assay window, and a minimum of two technical replicates were measured per assay.

Drosophila melanogaster = settings: cited from earlier work
[2] = tested on: T-ALL and breast cancer cell lines; assay: Growth inhibition in tumour cell lines (panel, cell lines not named singly); assay type: cell-based; settings: overview in comparison to compound C; Supplemental Fig. 9
Source text: We next investigated whether compounds A-E affected growth and viability of cell lines from T-cell acute lymphoblastic leukaemia (T-ALL) and breast cancer, two tumour types in which elevated Notch signalling has been implicated in tumorigenesis. […] When testing analogues of compounds B and C, five of the seven B analogues and one of the two C analogues produced dose–response curves and IC50s, which however were higher compared to the original hits (Supplemental Fig. 5A; IC50s are presented in Supplemental Table 6).
Compounds were spotted on white 384-well tissue culture plates (Greiner, cat #781080) using an Echo 525 Acoustic liquid handler (Labcyte). Cells were grown to 80% confluence, detached if required, counted and 20 µl containing 2000–4000 cells per well was then seeded in each well and cultivated for three (4,000 cells seeded) and six days (2,000 cells seeded). […] Luciferase activity (reading out metabolic activity) was determined using the CellTiter-Glo 2.0 kit (CTG, Promega, cat #G9242) following the manufacturer’s instructions and luminescence was measured on a SpectraMaxi3 or Varioscan plate reader (Molecular Devices, Thermofisher).

γ-secretase complex = γ-secretase complex (Homo sapiens, UniProt P49768); assay: APP-C99 counter assay (GSI reporter assay); assay type: cell-based; settings: for 3p-DR in % of DMSO counter: APP-C99 counter assay
Summary of the method: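 γ-secretase activity reported via APP cleavage driving firefly luciferase, normalized to renilla. After 24 h transfection then 24 h compound exposure, signals were read (0.1 s integration). Triplicate dose–responses fitted by variable-slope four-parameter model for IC50; area under curve also derived.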

Notch signalling [3] = assay: Notch reporter assay (12xCSL firefly luciferase / renilla luciferase, HEK293T Notch1ΔE reporter cell line clone #A1-11); assay type: cell-based; parameters: Confirmation screen: unit not given here; settings: for inhibitor ratio in % of DMSO in 3 point DR: 3-point DR confirmation screen, Notch reporter assay
Summary of the method: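 Compounds at two-fold concentration in 10 µl medium were brought to one-fold by adding 10 µl holding 4000 Notch reporter cells (clone #A1-11) per well of a 384-well plate. After 24 h, Promega dual-GLO firefly and renilla luciferase were read on a SpectraMaxi3. Dose-response curves were fitted with a log(inhibitor) vs. response variable-slope model.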

[4] = tested on: Notch1 ICD-induced mouse model of T-ALL; parameters: method as in PMID 37648673; settings: cited from earlier work
Notch signalling [5] = assay: Notch reporter assay (12xCSL firefly luciferase / renilla luciferase, HEK293T Notch1ΔE reporter cell line clone #A1-11); assay type: cell-based; settings: 24 h, unit from Fig. 2 legend
[6] = overview in comparison to compound C, Supplemental Fig. 9
[7] = 10 µM, sheet conf vs counter 10 µM
[8] = 25 µM, sheet "conf vs counter 25 µM", same values given as % of DMSO in sheet "3p-DR in % of DMSO counter"
[9] = 10 µM, sheet conf vs counter 10 µM, same values as 3-point DR confirmation screen
[10] = 25 µM, Notch reporter 3-point dose-confirmation assay, sheet "conf vs counter 25 µM"

3p-DR in % of DMSO counter (γ-secretase complex; 10µM)	Counter screen (Hek APP-C99) (γ-secretase complex; [7])	3p-DR in % of DMSO counter (γ-secretase complex; 25µM)	Counter screen (Hek APP-C99) (γ-secretase complex; [8])	3p-DR in % of DMSO counter (γ-secretase complex; 1,25µM)	Compound	Primary screen at 10 µM (Notch reporter signal) (Notch signalling [5])	inhibitor ratio in % of DMSO in 3 point DR (Notch signalling [3]; 10µM)	Confirmation screen (Notch signalling [3]; [9])	inhibitor ratio in % of DMSO in 3 point DR (Notch signalling [3]; 25µM)	Confirmation screen (Notch signalling [3]; [10])	inhibitor ratio in % of DMSO in 3 point DR (Notch signalling [3]; 1,25µM)	also measured
–	–	–	–	–	CO/C1=C\C(C)=C\[C@@H](C)[C@@H](O)[C@@H](C)C/C(C)=C/C=C/[C@H](OC)[C@@H]([C@@H](C)[C@@H](O)[C@H](C)[C@@]2(O)C[C@@H](O)[C@H](C)[C@@H](C(C)C)O2)OC1=O [Bafilomycin A1, reference compound]	–	–	–	–	–	–	HiBiT luciferase signal [1]: increased the HiBiT signal
–	–	–	–	–	Cc1c(C(=O)O)[nH]c(=O)[nH]c1=O [5-methyl orotate]	–	–	–	–	–	–	phenotype after chemical DHODH inhibition (Drosophila melanogaster): phenocopied Notch mutations
–	–	–	–	–	BAY2402234 [reference compound]	–	–	–	–	–	–	viability assay [2]: reduced; APP assay (γ-secretase complex; [6]): higher potency; IC50 (Notch signalling [3]; expanded dose range 500 nM-25 pM, Fig. 7E, read-out: IC50, Notch reporter activity): 11 nM; Notch assay (Notch signalling [3]; [6]): higher potency
–	–	–	–	–	CC(C)C[C@@H](C=O)NC(=O)[C@H](CC(C)C)NC(=O)[C@H](CC(C)C)NC(=O)OCc1ccccc1 [MG132, reference compound] (Cbz-Leu-Leu-Leu-aldehyde)	–	–	–	–	–	–	HiBiT luciferase signal [1]: increased the HiBiT signal
–	–	–	–	–	Cc1c(-c2ccc(-c3ccccc3F)cc2)nc2ccc(F)cc2c1C(=O)O [brequinar]	–	–	–	–	–	–	outcome in Notch1 ICD-induced mouse model of T-ALL [4]: curative
62.4 % of DMSO	62.4	22.0 % of DMSO	22.0	131.3 % of DMSO	COc1ccc(-c2noc([C@@H]3Cc4[nH]cnc4CN3C(=O)CCC(=O)O)n2)cc1 [CBK288967]	51.7 % of DMSO	51.6 % of DMSO	51.6	56.4 % of DMSO	56.4	72.4 % of DMSO	–
31.9 % of DMSO	31.8	19.5 % of DMSO	19.5	104.9 % of DMSO	CC(C)Nc1cncc(OCc2ccc(Cl)c(Cl)c2)n1 [CBK115653]	41.7 % of DMSO	44.3 % of DMSO	44.3	30.6 % of DMSO	30.6	102.4 % of DMSO	–
16.4 % of DMSO	16.4	13.7 % of DMSO	13.7	29.7 % of DMSO	O=C(O)c1c2c(nc3ccccc13)C(=Cc1ccc3c(c1)OCCO3)CC2 [CBK297479]	18.5 % of DMSO	15.2 % of DMSO	15.2	7.0 % of DMSO	7.0	22.8 % of DMSO	–
148.1 % of DMSO	148.1	225.5 % of DMSO	225.5	124.5 % of DMSO	COc1cc(Nc2cc(-c3ccccc3N(C)C)ncn2)cc(OC)c1OC [CBK090702]	68.4 % of DMSO	85.7 % of DMSO	85.7	55.7 % of DMSO	55.7	97.2 % of DMSO	–
